For one assay, the system named is BRD4. On the set-up: method as in earlier work. To be noted: VHL:PROTAC:BRD4; cited from earlier work.
Assay [1] concerns the target T1, IRE1:VHL (Homo sapiens, UniProt O75460+P40337). In words: NanoBRET IRE1:VHL interaction, WT IRE1, HEK293T cells. It is filed as cell-based. On the set-up: N2731 (HaloTag-VHL); host or cells: HEK293T. As to conditions: HEK293T, 1 µM G6374 and a titration of G5758. On the procedure: 8 × 10^5 293T cells per well were seeded in 6-well plates (Costar, #3516) and incubated at 37 °C, 5% CO2 for 6 h. A mixture of 0.2 µg ERN1 (IRE1)-NanoLuc Fusion Vector (Promega, NV1321), 2 µg HaloTag-VHL Fusion Vector (Promega, N2731), 6 µl FuGENE HD Transfection Reagent (Promega, E2311), and 100 µL Opti-MEM I reduced serum medium (Gibco, #31985062) per well was incubated at room temperature for 20 min before adding to cells. For expression of IRE1 mutants, site-directed mutagenesis was performed using the ERN1-NanoLuc Fusion Vector as the DNA template, and the transfection mixture was prepared in the same way as WT IRE1. After 18 h, cells from 6-well plates were trypsinized, resuspended in Opti-MEM I reduced serum medium, and reseeded into 96-well plates (Costar, #3917), with or without the addition of HaloTag NanoBRET 618 Ligand (Promega, G9801). […] After 2 h of G6374 treatment, NanoBRET Nano-Glo Substrate (Promega, N1571) was added to cells. The 96-well plates were imaged by GloMax Discover Microplate Reader (Promega, GM3000) with the default “BRET: NanoBRET 618” protocol (Donor: 450 BP; Acceptor: 600 LP; Integration: 0.3 s). Data analysis was performed according to the user manual.
In general terms: Bioluminescence resonance energy transfer reports proximity on the nanometre scale.

Assay [2] addresses T1, IRE1:VHL. Kind of assay: co-IP of endogenous VHL with endogenous IRE1 from AMO1 cells. As to conditions: G5758 in excess of G6374. It is filed as cell-based. On the set-up: co-IP of endogenous VHL with endogenous IRE1 from AMO1 cells; endogenous in cells; host or cells: AMO1. On the procedure:
(§1) Cells were lysed in buffer containing 20 mM HEPES 7.2, 150 mM NaCl, and 1% Triton X-100, supplemented with fresh protease and phosphatase inhibitors (Invitrogen, #78440), cleared by centrifugation at 12,000 × g for 10 min, and analyzed by BCA protein assay (Thermo Fisher Scientific, #23227). Equal protein amounts were loaded, separated by SDS-PAGE, electrotransferred to nitrocellulose membranes using the iBLOT2 system (Invitrogen), and blocked in 5% nonfat milk solution for 60 min. Membranes were probed with primary antibodies at 1:1000 dilution in 5% milk at 4 °C overnight. Signal was detected using appropriate horseradish peroxidase (HRP)-conjugated secondary antibodies at 1:10,000 in 5% milk at room temperature for 1–2 h. Bands were visualized by the Azure 600 western blot imaging system (Azure Biosystems). For in vitro ubiquitination assays performed with Me-Ub, bands were visualized by the Odyssey CLx Imager (LI‑COR) after incubating the blots with the IRDye 800CW (LI-COR) secondary antibodies at 1:10,000 in Intercept Blocking Buffer (LI-COR) at room temperature for 1–2 h.
IRE1.LD antibodies were conjugated to agarose beads using the AminoLink® Plus Immobilization Kit (Thermo Fisher, #44894). […]

In the next assay the test system is OPM2 cells. Kind of assay: Incucyte cell confluency, OPM2 cells. It is filed as cell-based. As to conditions: OPM2 shIRE1 cells, titration. The procedure: (§2) For non-adherent AMO1, KMS27, and OPM2 cells, cells were plated at 5000 cells/well in ultra-low attachment (ULA) 96-well plates (Costar, #7007) and centrifuged at 600 × g for 5 min for spheroid formation. For adherent U2OS and Colo201 cells, 2000 cells/well were seeded in a clear flat-bottom 96-well plate (Costar, #3595). Treatments were added at the time of cell seeding, and cells were cultured in complete RPMI media to a final volume of 200 µL/well. Cultures were maintained at 37 °C throughout the duration of the experiment. Cell confluency was tracked using the Incucyte live-cell imaging system (Sartorius S3). Picture frames were captured every 4 h with a 4× objective, and cell confluency (%) from the total well area as a function of time was calculated using the Incucyte software (version 2023 A Rev2).

In a further assay the test system is AMO1 cells. Kind of assay: Incucyte cell confluency, AMO1 cells. It is filed as cell-based. On the procedure:
as §2

The subject of the next assay is KMS27 cells. Kind of assay: Incucyte cell confluency, KMS27 cells. It is filed as cell-based. To be noted: KMS27 shIRE1 cells, titration. On the procedure:
as §2

Assay [3] concerns IRE1-dependent or -independent cell lines. Kind of assay: Incucyte, IRE1-dependent or -independent cell lines together. It is filed as cell-based. On the procedure:
as §2

For the next assay, the target named is IRE1 (Homo sapiens, UniProt O75460). In words: Endogenous IRE1 protein levels in AMO1 or H929 cells (immunoblot). It is filed as cell-based. On the set-up: Immunoblot (IB) analysis of endogenous IRE1 depletion in AMO1 cells; endogenous in cells; host or cells: AMO1, KMS27, H929. To be noted: 1 µM, 4 hr. On the procedure:
as §1
(In general: Immunoblotting shows a protein as a band on a membrane.)

The target in another assay is VCB (VHL:EloC:EloB) (Homo sapiens, UniProt P40337). In words: Surface plasmon resonance, binary interaction with VCB. It is filed as binding. As to conditions: SPR, immobilised VCB, 20 °C, 1 to 1 kinetic model. On the procedure:
All SPR experiments in this paper were recorded on a Biacore S200 instrument; all protein captures and data collection were at 20 °C.
For binary interactions with G6374: a Xantec SAHC 200 M (streptavidin) chip was inserted into the instrument and primed into running buffer [50 mM HEPES (pH 7.4), 150 mM NaCl, 0.001% Tween 20, 0.2% PEG3350, 0.25 mM TCEP, and 2% DMSO]. Biotinylated human IRE1.KR protein was captured on FC2 to 2-4000 RU, biotinylated VHL in complex with Elongin B (VHL/EloB) was captured on FC4 to 1-2000 RU, data were collected, and all referenced to FC1. Affinity for G6374 was measured using a titration series, injected from low to high with an 8-point, 2-fold dilution dose response with a top concentration of 0.5 μM in both single cycle (single cycle kinetics (SCK)) and multi cycle kinetics (MCK) formats. For MCK experiments, an association time of 45 s and a dissociation time of 200 s with a flow rate of 50 μL/min. For SCK experiments, an association time of 45 s and a dissociation time of 2000 s with a flow rate of 50 μL/min were used. All data were analyzed using Insight software (Cytiva) using a 1 to 1 kinetic binding model.

Another assay deals with WDR5. On the set-up: method as in earlier work. To be noted: VHL:PROTAC:WDR5; cited from earlier work.

Consider 6 compounds from PMC12749748, “Chemically-induced degradation of the endoplasmic-reticulum stress sensor IRE1 by a VHL-recruiting chimera” (Nature Communications, 2025).

As for `Cc1ncsc1-c1ccc(CNC(=O)[C@@H]2C[C@@H](O)CN2C(=O)[C@@H](NC(=O)COCCOCCOCCNC(=O)C[C@@H]2N=C(c3ccc(Cl)cc3)c3c(sc(C)c3C)-n3c(C)nnc32)C(C)(C)C)cc1` [MZ1], in the assay on BRD4, the DC50 was […] and the Dmax is reported as […].

For `O=S(=O)(Cc1ccccc1)Nc1c(F)cc(Oc2ncccc2-c2ccnc(N[C@@H]3CNC[C@@H](F)C3)n2)c(F)c1F` [G5758, reference compound], the “disruption of G6374-induced IRE1:VHL interaction (NanoBRET)” value at IRE1:VHL [1] was “could disrupt G6374-induced interaction between IRE1 and VHL”. In addition, the “competition with G6374-induced IRE1:VHL association and IRE1 depletion (co-IP)” value on IRE1:VHL [2] was “attenuated the induced association between IRE1 and VHL as well as the depletion of IRE1”.

As to `Cc1ncsc1-c1ccc(CNC(=O)[C@@H]2C[C@H](O)CN2C(=O)[C@@H](NC(=O)CCCCN2CCN(C3CCC(Nc4ncc5ccc(=O)n(C(C)C)c5n4)CC3)CC2)C(C)(C)C)cc1` (some centres unmarked) [G2642], the “growth inhibition (cell confluency)” value was “neither its epimer control G2642, nor the VHL ligand VH032, induced a concentration-dependent growth inhibition” in the assay on OPM2 cells; “neither its epimer control G2642, nor the VHL ligand VH032, induced a concentration-dependent growth inhibition” in the assay with AMO1 cells (AMO1 shIRE1 cells, titration); “neither its epimer control G2642, nor the VHL ligand VH032, induced a concentration-dependent growth inhibition” in the assay on KMS27 cells. Besides, the anti-proliferative activity result in assay [3] is “no anti-proliferative activity”. For the same compound, at IRE1, the “degradation of cellular IRE1” value is given as “does not degrade cellular IRE1”.

Consider `CC(=O)c1cnc2ccc(-c3cc(Cl)c(O)c(Cl)c3)nc2c1N[C@H]1CC[C@H](CN(C)C)CC1` [OTSSP167, reference compound], for which the “proliferation of AMO1 cells” value in the assay with AMO1 cells (at 3X the IC50 of OTSSP167) was “did not”.

On VCB (VHL:EloC:EloB), `CC(=O)N[C@H](C(=O)N1C[C@H](O)C[C@H]1C(=O)NCc1ccc(-c2scnc2C)cc1)C(C)(C)C` [VH032, reference compound] showed a ka of 550000 M⁻¹ s⁻¹ and a kd of 0.13 s⁻¹.

As for `Cc1ncsc1-c1ccc([C@H](C)NC(=O)[C@@H]2C[C@@H](O)CN2C(=O)[C@@H](NC(=O)CNC(=O)c2ccc(F)c(-c3ccc(N4C[C@@H](C)N(C)[C@@H](C)C4)c(NC(=O)c4c[nH]c(=O)cc4C(F)(F)F)c3)c2)C(C)(C)C)cc1` [MS67], in the assay on WDR5, the DC50 was 3.7 nM and the Dmax is on record as 94%.
